Test results reported in patent US20120077676A1, “Antifungal 1,2,4-Triazolyl Derivatives Having a 5-Sulfur Substituent” (BASF SE, priority 2009, published 2012).

Columns and labels:
[1] = test system: Phakopsora pachyrhizi; assay: Curative control of soy bean rust on soy beans, green house test; type: in vivo, Phakopsora pachyrhizi on soy bean seedlings; settings: 300 ppm, curative spray after inoculation; assessed after 14 days; untreated plants 90% infected
Experimental: (§1) The spray solutions were prepared in several steps: A mixture of acetone and/or dimethylsulfoxide and the wetting agent/emulsifier Wettol, which is based on ethoxylated alkylphenoles, in a relation (volume) solvent-emulsifier of 99 to 1 was added to 25 mg of the compound to give a total of 10 ml. Water was then added to total volume of 100 ml. This stock solution was diluted with the described solvent-emulsifier-water mixture to the given concentration.
Leaves of pot-grown soy bean seedlings were inoculated with spores of Phakopsora pachyrhizi. To ensure the success of the artificial inoculation, the plants were transferred to a humid chamber with a relative humidity of about 95% and 20 to 24° C. for 24 h. The next day the plants were cultivated for 2 days in a greenhouse chamber at 23-27° C. and a relative humidity between 60 and 80%. Then the plants were sprayed to run-off with an aqueous suspension, containing the concentration of active ingredient as described below. The plants were allowed to air-dry. Then the trial plants were cultivated for 14 days in a greenhouse chamber at 23-27° C. and a relative humidity between 60 and 80%. The extent of fungal attack on the leaves was visually assessed as % diseased leaf area.

[2] = test system: Puccinia recondite; assay: Preventative control of brown rust on wheat, green house test; type: in vivo, Puccinia recondite on wheat seedlings; settings: 300 ppm, preventative spray one day before inoculation; assessed after 6 days in greenhouse; untreated plants 80% infected
Experimental: as §1
The first two developed leaves of pot-grown wheat seedling were sprayed to run-off with an aqueous suspension, containing the concentration of active ingredient or their mixture as described below. The next day the plants were inoculated with spores of Puccinia recondite. To ensure the success the artificial inoculation, the plants were transferred to a humid chamber without light and a relative humidity of 95 to 99% and 20 to 24° C. for 24 h. Then the trial plants were cultivated for 6 days in a greenhouse chamber at 20-24° C. and a relative humidity between 65 and 70%. The extent of fungal attack on the leaves was visually assessed as % diseased leaf area.

[3] = test system: Botrytis cinerea; assay: Activity against the grey mold Botrytis cinerea in the microtiterplate test (Botrci); type: cell-based; settings: 31 ppm active compound; absorption at 405 nm 7 days after inoculation; active compound-free control = 100%
Experimental: The active substances were formulated separately as a stock solution in dimethyl sulfoxide (DMSO) at a concentration of 10 000 ppm. The stock solutions were mixed according to the ratio, pipetted onto a micro titer plate (MTP) and diluted with water to the concentration given below. A spore suspension of Botrytis cinerea in an aqueous biomalt solution was then added. The plates were placed in a water vapor-saturated chamber at a temperature of 18° C. Using an absorption photometer, the MTPs were measured at 405 nm 7 days after the inoculation. The measured parameters were compared to the growth of the active compound-free control variant (100%) and the fungus-free and active compound-free blank value to determine the relative growth in % of the pathogens in the respective active compounds.

Compound | infection (% diseased leaf area) [1] [%] | infection (% diseased leaf area) [2] [%] | relative growth in % of the pathogen [3] [%]
OC(CC1CC1)(Cn1ncnc1S)c1ccc(Cl)cc1 (stereo not shown) [I.A.1, 2-(4-Chloro-phenyl)-3-cyclopropyl-1-(5-mercapto-[1,2,4]triazol-1-yl)-propan-2-ol] | 0 | 20 | –
OC(CC1CC1)(Cn1ncnc1S)c1ccc(Cl)cc1Cl (stereo not shown) [I.A.2, 2-(2,4-Dichloro-phenyl)-3-cyclopropyl-1-(5-mercapto-[1,2,4]triazol-1-yl)-propan-2-ol] | 0 | 20 | –
CC(C1CCCCC1)C(O)(Cn1ncnc1S)c1ccc(Cl)cc1 (stereo not shown) [I.A.3, 2-(4-Chloro-phenyl)-3-cyclohexyl-1-(5-mercapto-[1,2,4]triazol-1-yl)-butan-2-ol] | 0 | 20 | 0
CC(C1CC1)C(O)(Cn1ncnc1S)c1ccccc1 (stereo not shown) [I.A.4, 2-Phenyl-3-cyclopropyl-1-(5-mercapto-[1,2,4]triazol-1-yl)-butan-2-ol] | 0 | 20 | –
CC(C1CC1)C(O)(Cn1ncnc1S)c1ccc(Cl)c(Cl)c1 (stereo not shown) [I.A.5, 2-(3,4-Dichloro-phenyl)-3-cyclopropyl-1-(5-mercapto-[1,2,4]triazol-1-yl)-butan-2-ol] | 0 | 20 | –
CC(C1(C)CC1)C(O)(Cn1ncnc1S)c1ccc(Cl)cc1 (stereo not shown) [I.A.6, 2-(4-Chloro-phenyl)-3-(1-methylcyclopropyl)-1-(5-mercapto-[1,2,4]triazol-1-yl)-butan-2-ol] | 0 | 20 | 0
CC(C1CCCC1)C(O)(Cn1ncnc1S)c1ccc(Cl)cc1 (stereo not shown) [I.A.7, 2-(4-Chloro-phenyl)-3-cyclopentyl-1-(5-mercapto-[1,2,4]triazol-1-yl)-butan-2-ol] | 0 | 20 | –
CC(C1CC1)C(O)(Cn1ncnc1S)c1ccc(F)c(F)c1 (stereo not shown) [I.A.8, 2-(3,4-Difluoro-phenyl)-3-cyclopropyl-1-(5-mercapto-[1,2,4]triazol-1-yl)-butan-2-ol] | 0 | 20 | –
CC(C1(C)CC1)C(O)(Cn1ncnc1S)c1ccccc1 (stereo not shown) [I.A.9, 2-Phenyl-3-(1-methylcyclopropyl)-1-(5-mercapto-[1,2,4]triazol-1-yl)-butan-2-ol] | 0 | – | –
